Some results are limits rather than exact numbers.

Broadly, the MIC is the smallest concentration in the dilution series that meets the test's criterion for growth inhibition.

For the first experiment, the system named is Escherichia coli (ATCC25922) or Staphylococcus aureus (ATCC25923). Nature of the experiment: Antibacterial MIC, microdilution method in Mueller-Hinton medium. To be noted: Escherichia coli, 18 h, MIC in E. coli or S. aureus; two-fold serial dilutions 64 to 0.5 μg/ml in duplicate; 18 hours of incubation at 35° C.; read-out: Potency (MIC). The format is cell-based. On the procedure: The antibacterial activity of the Formula I compounds was evaluated against standard bacterial strains by determining the minimal inhibitory concentration (MIC) to block growth. Each drug was assayed by the microdilution method in Mueller-Hinton medium, as recommended by the National Committee for Clinical Laboratory Standards. Approved Standard M7-A5: Methods for Dilution Antimicrobial Susceptibility Tests for Bacteria That Grow Aerobically 5th Ed. (National Committee for Clinical Laboratory Standards, Wayne, Pa., 2000). The tested bacterial strains included Escherichia coli (American Type Collection ATCC25922), Staphylococcus aureus (ATCC25923), and Pseudomonas aeruginosa (ATCC27853). Two-fold serial dilutions of each compound ranging from 64 to 0.5 μg/ml were tested in duplicate. The MIC was determined as the lowest concentration of each compound that prevented bacterial growth after 18 hours of incubation at 35° C. […] The mass of each compound in the Table was confirmed by LC-MS.
A general note: Broth dilution looks for growth in wells or tubes with falling amounts of substance.
Take `Cc1csc2c(NNc3nc(N4C[C@H](N)C[C@H](N)C4)nc(N4C[C@H](N)C[C@H](N)C4)n3)ncnc12.Cl` [N-(4,6-Bis-((3R,5S)-3,5-diamino-piperidin-1-yl)-[1,3,5]triazin-2-yl)-N′-(7-Methyl-thieno[3,2-d]pyrimidin-4-yl)-hydrazine]: the MIC is greater than 64 µg/mL. `Cl.N[C@@H]1C[C@H](N)CN(c2nc(Nc3ccccc3-n3cccc3)nc(N3C[C@H](N)C[C@H](N)C3)n2)C1` [N-(2-pyrrol-1-yl-phenyl)-4,6-Bis-((3R,5S)-3,5-diamino-piperidin-1-yl)-[1,3,5]triazine-2-amine]: the minimum inhibitory concentration (MIC) was less than 64 µg/mL. Consider `CCN(C)CCNC(=O)c1ccc(NC(=O)CC(=O)c2ccc(Nc3nc(N4CCCCC4)nc(N4CCCCC4)n3)cc2)cc1.Cl` [N-(4-{2-[4-(2-diethylamino-ethylcarbamoyl)-phhenylcxarbamoyl]-acetyl}-phenyl)-4,6-Bis-((3R,5S)-3,5-diamino-piperidin-1-yl)-[1,3,5]triazine-2-amine], for which the MIC was greater than 64 µg/mL. For `Cc1ccc(C(=O)Nc2ccc(Nc3nc(N4C[C@H](N)C[C@H](N)C4)nc(N4C[C@H](N)C[C@H](N)C4)n3)cc2O)c(O)c1` [N-[3-hydroxy-4-(2-hydroxy-4-methyl-benzoylamino)-phenyl]-4,6-Bis-((3R,5S)-3,5-diamino-piperidin-1-yl)-[1,3,5]triazine-2-amine], the MIC was less than 16 µg/mL. Take `COC(=O)c1ccccc1Nc1nc(N2C[C@H](N)C[C@H](N)C2)nc(N2C[C@H](N)C[C@H](N)C2)n1` [2-[4,6-Bis-((3R,5S)-3,5-diamino-piperidin-1-yl)-[1,3,5]triazin-2-ylamino]-benzoic acid methyl ester]: the MIC is greater than 64 µg/mL. On the same count and under the same terms, under `Cl.NC1C[C@H](N)CN(c2nc(Nc3ccc(Br)c4ccccc34)nc(N3C[C@H](N)C[C@H](N)C3)n2)C1` (stereo in doubt) [N-(4-bromo-naphthalen-1-yl)-4,6-Bis-((3R,5S)-3,5-diamino-piperidin-1-yl)-[1,3,5]triazine-2-amine] stands less than 64 µg/mL; under `COc1nc(Nc2ccc(C(=O)CC(=O)Nc3ccccc3Cl)cc2)nc(N2C[C@H](N)C[C@H](N)C2)n1.Cl` [N-(2-Chloro-phenyl)-3-{4-[4-((3R,5S)-3,5-diamino-piperidin-1-yl)-6-methoxy-[1,3,5]triazin-2-ylamino]-phenyl}-3-oxo-propionamide], less than 16 µg/mL. In the case of `Cc1cc(=O)oc2cc(Nc3nc(N4CCCCC4)nc(N4CCCC4)n3)ccc12.Cl` [7-[4-((3R,5S)-33,5-Diamino-piperidin-1-yl)-6-((3R,4S)-3,4-dihydroxy-pyrrolidin-1-yl)-[1,3,5]triazin-2-ylamino]-4-methyl-chromen-2-one], the MIC was greater than 64 µg/mL. Consider `COc1ccc(Nc2ccc(NC(=O)CC(=O)c3ccc(Nc4nc(N5C[C@H](N)C[C@H](N)C5)nc(N5C[C@H](N)C[C@H](N)C5)n4)cc3)cc2)cc1` [N-(4-{2-[4-(4-methoxy-phenylamino)-phenylcarbamoyl]-acetyl}-phenyl)-4,6-Bis-((3R,5S)-3,5-diamino-piperidin-1-yl)-[1,3,5]triazine-2-amine], for which the MIC was less than 16 µg/mL.

The same experiment, now with this note: Escherichia coli, 18 h, read-out: Potency (MIC).
For the compound `Cc1ccc(S(=O)(=O)N(Cc2ccccc2)c2ccc(Nc3nc(N4C[C@H](N)C[C@H](N)C4)nc(N4C[C@H](N)C[C@H](N)C4)n3)cc2O)cc1` [N-{4-[benzyl-(toluene-4-sulfonyl)-amino]-3-hydroxy-phenyl}-4,6-Bis-((3R,5S)-3,5-diamino-piperidin-1-yl)-[1,3,5]triazine-2-amine], the MIC is less than 16 µg/mL. For the compound `Cc1ccc(S(=O)(=O)N(Cc2ccccc2)c2ccc(Nc3nc(N4C[C@H](N)C[C@H](N)C4)nc(N4C[C@H](CN)C[C@H](CN)C4)n3)c(O)c2)cc1` [N-Benzyl-N-{4-[4-((3S,5R)-3,5-bis-(aminomethyl)-piperidin-1-yl)-6-((3R,5S)-3,5-diamino-piperidin-1-yl)-[1,3,5]triazin-2-ylamino]-3-hydroxy-phenyl}-4-methyl-benzenesulfonamide], the MIC is less than 64 µg/mL. On to `Cc1c(Cl)cccc1CNc1nc(N2C[C@H](N)C[C@H](N)C2)nc(N2C[C@H](N)C[C@H](N)C2)n1` [N-(3-chloro-2-methyl-benzyl)-4,6-Bis-((3R,5S)-3,5-diamino-piperidin-1-yl)-[1,3,5]triazine-2-amine], for which the MIC was greater than 64 µg/mL.

Consider `N[C@@H]1C[C@H](N)CN(c2nc(Nc3ccc(NC(=O)c4cc(OC(F)(F)F)ccc4O)cc3)nc(N3C[C@H](N)C[C@H](N)C3)n2)C1` [N-[4-(2-hydroxy-5-trifluoromethoxy-benzoylamino)-phenyl]-4,6-Bis-((3R,5S)-3,5-diamino-piperidin-1-yl)-[1,3,5]triazine-2-amine], for which the MIC is less than 16 µg/mL. Still for that read-out and setting: then `N[C@@H]1C[C@H](N)CN(c2nc(Nc3ccc(C(=O)CC(=O)Nc4ccccc4Cl)cc3)nc(N3C[C@@H](N)[C@@H](N)C3)n2)C1` [N-(2-Chloro-phenyl)-3-{4-[4-((3R,5S)-3,5-diamino-piperidin-1-yl)-6-((3R,4S)-3,4-diamino-pyrrolidin-1-yl)-[1,3,5]triazin-2-ylamino]-phenyl}-3-oxo-propionamide], with less than 64 µg/mL. For the compound `N[C@@H]1C[C@H](N)CN(c2nc(Nc3ccc4c(c3)-c3ccccc3C4=O)nc(N3C[C@H](N)C[C@H](N)C3)n2)C1` [N-(9-oxo-9H-fluoren-3-yl)-4,6-Bis-((3R,5S)-3,5-diamino-piperidin-1-yl)-[1,3,5]triazine-2-amine], the MIC is less than 16 µg/mL. Same read-out and setting: under `Cc1cc(=O)oc2cc(Nc3nc(N4C[C@H](N)C[C@H](N)C4)nc(N4C[C@@H](N)[C@@H](N)C4)n3)ccc12` [7-[4-((3R,5S)-3,5-diamino-piperidin-1-yl)-6-((3R,4S)-3,4-diamino-pyrrolidin-1-yl)-[1,3,5]triazin-2-ylamino]-4-methyl-chromen-2-one] stands greater than 64 µg/mL; under `Cc1cc(=O)oc2cc(Nc3nc(N(CCN)CCN)nc(N4C[C@H](N)C[C@H](N)C4)n3)ccc12` [7-[4-[Bis-(2-amino-ethyl)-amino]-6-((3R,5S)-3,5-diamino-piperidin-1-yl)-[1,3,5]triazin-2-ylamino]-4-methyl-chromen-2-one], greater than 64 µg/mL; under `CCN(c1ccc(Nc2nc(N3C[C@H](N)C[C@H](N)C3)nc(N3C[C@H](N)C[C@H](N)C3)n2)cc1)C(C)C` [N-[4-(ethyl-isopropyl-amino)-phenyl]-4,6-Bis-((3R,5S)-3,5-diamino-piperidin-1-yl)-[1,3,5]triazine-2-amine], greater than 64 µg/mL. Still for that read-out and setting: under `N[C@@H]1C[C@H](N)CN(c2nc(Nc3ccc(C(=O)N4CCc5cc(Br)ccc54)c(O)c3)nc(N3C[C@H](N)C[C@H](N)C3)n2)C1` [N-[4-(5-bromo-2,3-dihydro-indole-1-carbonyl)-3-hydroxy-phenyl]-4,6-Bis-((3R,5S)-3,5-diamino-piperidin-1-yl)-[1,3,5]triazine-2-amine] stands less than 16 µg/mL. The same measure, in the same setting: under `N[C@@H]1C[C@H](N)CN(c2nc(Nc3ccc(S(=O)(=O)Nc4ccc5cn[nH]c5c4)cc3)nc(N3CCC[C@@H](O)C3)n2)C1` [4-[4-((3S,5R)-3,5-Diamino-piperidin-1-yl)-6-((R)-3-hydroxy-piperidin-1-yl)-[1,3,5]triazin-2-ylamino]-N-(1H-indazol-6-yl)-benzenesulfonamide] stands greater than 64 µg/mL; under `Nc1cccc(NC(=O)CC(=O)c2ccc(Nc3nc(N4C[C@H](N)C[C@H](N)C4)nc(N4C[C@H](N)C[C@H](N)C4)n3)cc2)c1` [N-{4-[2-(3-amino-phenylcarbamoyl)-acetyl]-phenyl}-4,6-Bis-((3R,5S)-3,5-diamino-piperidin-1-yl)-[1,3,5]triazine-2-amine], greater than 64 µg/mL. For the compound `N[C@@H]1C[C@H](N)CN(c2nc(NNc3cccc(Cl)c3)nc(N3C[C@H](N)C[C@H](N)C3)n2)C1` [N-(4,6-Bis-((3R,5S)-3,5-diamino-piperidin-1-yl)-[1,3,5]triazin-2-yl)-N′-(3-Chloro-phenyl)-hydrazine], the MIC was less than 64 µg/mL. In the case of `N[C@@H]1C[C@H](N)CN(c2nc(Nc3nc4ccccc4s3)nc(N3C[C@H](N)C[C@H](N)C3)n2)C1` [N-benzothiazol-2-yl-4,6-Bis-((3R,5S)-3,5-diamino-piperidin-1-yl)-[1,3,5]triazine-2-amine], the MIC is less than 64 µg/mL.

In the case of `N[C@@H]1C[C@H](N)CN(c2nc(N3C[C@H](N)C[C@H](N)C3)c(Cl)c(Nc3ccc(NC(=O)c4ccc5ccccc5c4O)cc3)c2Cl)C1` [1-Hydroxy-naphthalene-2-carboxylic acid [4-(3,5-dichloro-2,6-Bis-((3R,5S)-3,5-diamino-piperidin-1-yl)-pyridin-4-ylamino)-phenyl]-amide], the MIC is less than 16 µg/mL. Consider `CC(=O)c1ccc(Nc2nc(N3C[C@H](N)C[C@H](N)C3)nc(N3C[C@H](N)C[C@H](N)C3)n2)cc1` [N-(4-acetyl-phenyl)-4,6-Bis-((3R,5S)-3,5-diamino-piperidin-1-yl)-[1,3,5]triazine-2-amine], for which the MIC is less than 64 µg/mL. For the compound `N[C@@H]1C[C@H](N)CN(c2nc(Nc3ccc(NC(=O)c4ccc5cccnc5c4O)cc3)nc(N3C[C@H](N)C[C@H](N)C3)n2)C1` [N-{4-[(8-hydroxy-quinoline-7-carbonyl)-amino]-phenyl}-4,6-Bis-((3R,5S)-3,5-diamino-piperidin-1-yl)-[1,3,5]triazine-2-amine], the MIC is less than 16 µg/mL.

The experiment is the same for the next values; noted with them: MIC in E. coli or S. aureus; two-fold serial dilutions 64 to 0.5 μg/ml in duplicate; 18 hours of incubation at 35° C.
Take “N-[4-(cyclohexanecarbonyl-amino)-3-hydroxy-phenyl]-4,6-Bis-((3R,5S)-3,5-0diamino-piperidin-1-yl)-[1,3,5]triazine-2-amine”: the “Potency (MIC)” value is “+ (+ means MIC<64 μg/ml in E. coli or S. aureus)”.

(Values after US7223759B2, “Antibacterial 3,5-diaminopiperidine-substituted aromatic and heteroaromatic compounds” (Anadys Pharmaceuticals, Inc., priority 2003, dated 2007).)
